Assays:
[1] = test system: Gif106M1 transformed with pBT436; experiment: Growth inhibition in M9 media; format: cell-based, E. coli; settings: M9 media with arginine, isoleucine, ampicillin; reversed by threonine plus methionine
Procedure: Addition of lysine (or diaminopimelate which is readily converted to lysine in vivo) at a concentration of approximately 0.2 mM to the growth medium inhibits the growth of Gif106M1 transformed with pBT436. M9 media [see Sambrook et al. (1989) Molecular Cloning: a Laboratory Manual, Cold Spring Harbor Laboratory Press] supplemented with the arginine and isoleucine, required for Gif106M1 growth, and ampicillin, to maintain selection for the pBT436 plasmid, was used. This inhibition is reversed by addition of threonine plus methionine to the growth media. […] This property of pBT436-transformed Gif106M1 was used to select for mutations in lysC that encoded lysine-insensitive AKIII.

wild type AKIII = target: T1, wild type AKIII (Escherichia coli, UniProt P08660); experiment: Inhibition of AKIII by lysine; format: biochemical, E. coli
T1 construct: made in house; host or cells: E. coli (pBT436 in AK-deficient strain Gif106M1)
T1 sequence (P08660 2-449): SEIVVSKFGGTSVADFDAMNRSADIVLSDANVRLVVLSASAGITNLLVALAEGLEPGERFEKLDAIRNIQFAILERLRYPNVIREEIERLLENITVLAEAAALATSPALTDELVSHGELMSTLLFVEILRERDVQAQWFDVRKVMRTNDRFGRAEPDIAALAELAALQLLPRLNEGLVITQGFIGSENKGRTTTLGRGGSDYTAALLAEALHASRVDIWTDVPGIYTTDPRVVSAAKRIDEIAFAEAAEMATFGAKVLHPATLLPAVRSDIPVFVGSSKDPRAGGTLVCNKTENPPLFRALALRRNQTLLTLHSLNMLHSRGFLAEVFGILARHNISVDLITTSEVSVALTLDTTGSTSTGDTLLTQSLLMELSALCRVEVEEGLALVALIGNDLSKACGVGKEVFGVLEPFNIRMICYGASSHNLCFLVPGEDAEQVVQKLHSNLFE
Procedure: (§1) Single colonies of Gif106M1 transformed with pBT436 were picked and resuspended in 200 µL of a mixture of 100 µL 1% lysine plus 100 µL of M9 media. The entire cell suspension containing 10^7-10^8 cells was spread on a petri dish containing M9 media supplemented with the arginine, isoleucine, and ampicillin. Sixteen petri dishes were thus prepared. From 1 to 20 colonies appeared on 11 of the 16 petri dishes. One or two (if available) colonies were picked and retested for lysine resistance and from this nine lysine-resistant clones were obtained. Plasmid DNA was prepared from eight of these and re-transformed into Gif106M1 to determine whether the lysine resistance determinant was plasmid-borne. Six of the eight plasmid DNAs yielded lysine-resistant colonies. Three of these six carried lysC genes encoding AKIII that was uninhibited by 15mM lysine, whereas wild type AKIII is 50% inhibited by 0.3-0.4 mM lysine and >90% inhibited by 1 mM lysine (see Example 2 for details).

DE126 = experiment: Growth inhibition in synthetic medium; format: cell-based, E. coli
Source text: To select clones that carried the LKR gene a specially designed E. coli host, DE126 was constructed. Construction of DE126 occurred in several stages. • (1) A generalized transducing stock of coliphage Plvir was produced by infection of a culture of TST1 [F^-, araD139, delta (argF-lac) 205, flb5301, ptsF25, relA1, rpsL150, malE52::Tn10, deoC1, λ^-] (E. coli Genetic Stock Center #6137) using a standard method (for Methods see J. Miller, Experiments in Molecular Genetics). • (2) This phage stock was used as a donor in a transductional cross (for Method see J. Miller, Experiments in Molecular Genetics) with strain GIF106M1 [F^-, arg-, ilvA296, lysC1001, thrA1101, metL1000, λ^-, rpsL9, malT1, xyl-7, mtl-2, thi1(?), supE44(?)] (E. coli Genetic Stock Center #5074) as the recipient. Recombinants were selected on rich medium [L supplemented with DAP] containing the antibiotic tetracycline. […] The genes malE and lysC are separated by less than 0.5 minutes, well within cotransduction distance. • (3) 200 tetracycline-resistant transductants were thoroughly phenotyped; appropriate fermentation and nutritional traits were scored. […] The phenotype of one clone was determined to be Ilv^+, Arg^-, TetR, Lysine-sensitive, male specific phage (MS2)-sensitive, consistent with the simple transfer of F'16 from AB1528 to DE125. […]

E. coli DHDPS = target: T2, E. coli DHDPS (Escherichia coli, UniProt P0A6L2, F2V); experiment: DHDPS enzyme activity assay; format: biochemical
T2 construct: An 880 bp Nco I-Kpn I fragment from pBT443 containing the entire ecodapA coding region; made in house; host or cells: E. coli BL21(DE3)/pBT442, supernatant of IPTG-induced extract
T2 sequence (P0A6L2 whole entry F2V, the tested form may be a part): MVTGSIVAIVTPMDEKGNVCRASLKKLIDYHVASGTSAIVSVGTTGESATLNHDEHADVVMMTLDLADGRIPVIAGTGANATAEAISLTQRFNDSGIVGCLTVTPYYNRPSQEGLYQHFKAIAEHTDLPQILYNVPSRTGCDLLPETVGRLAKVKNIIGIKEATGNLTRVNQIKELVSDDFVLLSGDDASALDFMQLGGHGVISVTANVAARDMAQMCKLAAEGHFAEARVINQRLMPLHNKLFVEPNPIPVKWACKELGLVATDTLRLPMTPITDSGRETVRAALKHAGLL
Procedure: (§2) DHDPS enzyme activity was assayed as follows: Assay mix (for 10 X 1.0 mL assay tubes or 90 X 0.25 mL for microtiter dish); made fresh, just before use:
(§3) Color allowed to develop for 30-60 min. Precipitate spun down in eppendorf centrifuge. OD540 vs 0 min read as blank. For MicroAssay, aliquot 0.2 mL into microtiter well and read at OD530.
(§4) The specific activity of E. coli DHDPS in the supernatant fraction of induced extracts was about 50 OD540 units per minute per milligram protein in a 1.0 mL assay. E. coli DHDPS was sensitive to the presence of L-lysine in the assay. Fifty percent inhibition was found at a concentration of about 0.5 mM. For Corynebacterium DHDPS, the activity was measured in the supernatant fraction of uninduced extracts, rather than induced extracts. Enzyme activity was about 4 OD530 units per minute per milligram protein in a 0.25 mL assay.

Corynebacterium DHDPS = target: T3, Corynebacterium DHDPS (Corynebacterium glutamicum, UniProt P19808, S2A); experiment: DHDPS enzyme activity assay; format: biochemical; settings: lysine at 70 mM in the enzyme reaction mix
T3 construct: An 870 bp Nco I-EcoR I fragment from pFS766 containing the entire cordapA coding region; made in house; host or cells: E. coli BL21(DE3)/pFS766, supernatant of uninduced extract
T3 sequence (P19808 whole entry S2A, the tested form may be a part): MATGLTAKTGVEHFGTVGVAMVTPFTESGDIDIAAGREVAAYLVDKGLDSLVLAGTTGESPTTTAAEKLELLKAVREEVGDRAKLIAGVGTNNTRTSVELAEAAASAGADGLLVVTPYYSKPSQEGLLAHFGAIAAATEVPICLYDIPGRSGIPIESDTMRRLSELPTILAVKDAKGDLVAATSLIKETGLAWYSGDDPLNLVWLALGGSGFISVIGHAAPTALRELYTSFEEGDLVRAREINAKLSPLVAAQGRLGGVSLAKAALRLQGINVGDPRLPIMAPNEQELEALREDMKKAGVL
Procedure: as §2, §3, §4

[2] = target: T4, AKIII encoded by mutant lysC genes (Escherichia coli, UniProt P08660, T352I); experiment: Inhibition of AKIII by lysine (mutant lysC genes); format: biochemical, E. coli; settings: 15mM lysine; three of six mutant lysC plasmids
T4 construct: made in house; host or cells: E. coli (mutant derivatives of pBT436 selected in Gif106M1; the extract used is not described)
T4 sequence (P08660 whole entry T352I): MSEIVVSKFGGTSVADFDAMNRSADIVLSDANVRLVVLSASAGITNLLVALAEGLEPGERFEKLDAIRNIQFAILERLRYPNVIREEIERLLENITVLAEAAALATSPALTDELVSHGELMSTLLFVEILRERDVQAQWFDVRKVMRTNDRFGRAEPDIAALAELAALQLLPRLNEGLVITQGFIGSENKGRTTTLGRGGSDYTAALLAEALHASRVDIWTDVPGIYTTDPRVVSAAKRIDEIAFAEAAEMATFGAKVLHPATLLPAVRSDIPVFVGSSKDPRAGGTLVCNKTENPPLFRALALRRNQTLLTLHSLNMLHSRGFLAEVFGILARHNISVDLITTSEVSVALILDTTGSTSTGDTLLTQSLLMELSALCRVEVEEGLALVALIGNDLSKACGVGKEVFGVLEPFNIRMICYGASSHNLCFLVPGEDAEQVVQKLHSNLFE
Procedure: as §1
The sequences of the three mutant lysC genes that encoded lysine-insensitive AK each differed from the wild type sequence by a single nucleotide, resulting in a single amino acid substitution in the protein. […] Thus, either of these single amino acid substitutions is sufficient to render the AKIII enzyme insensitive to lysine inhibition.

Compound | concentration in the growth medium that inhibits growth [1] | inhibited (wild type AKIII; 1 mM lysine) | IC50 (wild type AKIII; read-out: 50% inhibited, lysine concentration) | concentration of L-lysine that inhibits growth (DE126) | IC50 (E. coli DHDPS) | fold less sensitive to inhibition by lysine than a typical plant enzyme, e.g., wheat DHDPS (E. coli DHDPS) | inhibition by L-lysine (Corynebacterium DHDPS) | inhibition by L-lysine (Corynebacterium DHDPS; listed as lysine) | inhibition by lysine [2]
NCCCC[C@H](N)C(=O)O [L-lysine] | approximately 0.2 mM | > 90% | 300 to 400 µM | 20 µg/mL | ~500 µM | at least 20 fold | not inhibited at all | unaffected | uninhibited
NC(CCCC(N)C(=O)O)C(=O)O (stereo not shown) [diaminopimelate] | approximately 0.2 mM |  |  |  |  |  |  |  | 
